Experiments:
[1] = test system: Huh7.5.1 cells; assay: MTS cell viability assay; assay type: cell-based, human; conditions: 3 h treatment, 72 h incubation
Text: In this comparison, niclosamide was used as a positive control, which is known as HCV inhibitor (unclear mechanisms). Data from CellTiter-Glo assay was obtained from separate experiments conducted on a different date.
MTS (3-(4,5-dimethylthiazol-2-yl)-5-(3-carboxymethoxyphenyl)-2-(4-sulfophenyl)-2H-tetrazolium)) assay is a colorimetric assay used to determine the mitochondrial metabolic rate by quantifying the reduced formazan product of MTS in cells to reflect viable cells. To determine the CC50 of each compound, Huh7.5.1 cells were treated with compounds or DMSO at indicated doses for 3 h in 96-well plates. After removal of compounds, cells were further incubated for 72 h prior to conducting the viability assay. The MTS assay in this study is accordance with a protocol provided by manufacturer (Promega, Madison, Wis. USA). One-fifth volume of MTS reagent was added into the culture supernatant at indicated time points. Plates were incubated at 37° C. for 3 hours with 5% CO2 followed by measuring the absorbance at 490 nanometers (nm) with an ELISA reader (SpectraMax Plus 385, Molecular Devices, USA). Percentages of toxicity were calculated using the formulas: 100-percentage of vial cells relative to that from the dimethyl sulfoxide (DMSO) treated group (100%) (n=3) (FIG. 68-FIG. 71).

[2] = Cytotoxicity, CellTiter-Glo Cell Viability Luminescent Assay; assay type: cell-based, human; conditions: human; Huh7.5.1 cells, 3 h treatment, viability after 72 h; concentration giving 50% cell death
Experimental: (§1) To determine the […] of each compound, Huh7.5.1 cells were treated with compounds or DMSO at indicated doses for 3 h in 96-well plates. After removal of compounds, cells were further incubated for 72 h prior to the viability assay. The numbers of viable cells in culture were determined using the CellTiter-Glo Cell Viability Luminescent Assay kit according to the manufacturer's instruction (Promega). Percentages of toxicity were calculated using the formulas: 100-percentage of vial cells relative to that from the dimethyl sulfoxide (DMSO) treated group (100%) (n=3) (FIG. 20-FIG. 57).

[3] = test system: Huh7.5.1 cells; assay: as above; assay type: cell-based, human; conditions: Huh7.5.1 cells; for cytotoxicity (in words): comparisons are to aglaroxin C (6)
Experimental: as §1

[4] = test system: JFH-1 HCVcc-Luc; assay: microbe, parasite or virus in culture; assay type: cell-based, Hepatitis C virus; conditions: for EC50: Hepatitis C virus, Huh-7.5.1, read-out: EC50, inhibition of HCV infection; for inhibition of HCV infection (in words): Huh7.5.1 cells, comparisons are to aglaroxin C (6)
[5] = test system: cap-dependent Firefly luciferase (FLuc) translation; assay: In vitro translation of bicistronic FF/HCV/Ren mRNA in Krebs-2 extracts, cap-dependent; assay type: biochemical; conditions: 1 μM, relative to DMSO
Text: In this system, Firefly luciferase (FLuc) translation is cap-dependent whereas Renilla luciferase (RLuc) expression HCV-IRES dependent. […] Results are presented relative to values obtained in the presence of DMSO ad expressed as mean±error of two biological replicates.
In this system, translation of the Firefly luciferase (FLuc) translation is cap-dependent whereas Renilla luciferase (RLuc) translation is dependent upon the HCV internal ribosome entry site (IRES) FIG. 11A.
In vitro transcriptions and translations were performed as described previously. Plasmid encoding the bicistronic FF/HCV/Ren open reading frame was linearized with BamHI and m^7Gppp-capped mRNA was produced by in vitro transcription reactions using SP6 RNA polymerase. In vitro translation reactions were performed with S10 extracts prepared from Kreb-2 cells and programmed with 4 ng/uL of in vitro transcribed mRNA. Firefly (FF) and Renilla (Ren) luciferase activities were measured on a Berthold Lumat LB9507 Luminometer and values normalized against vehicle control, which was set at 1.

[6] = test system: translation; conditions: previous studies; cited from earlier work

COc1ccc(-c2nc3c(c(=O)[nH]2)[C@@H](c2ccccc2)[C@]2(c4ccc(OC)cc4)Oc4cc(OC)cc(OC)c4[C@]32O)cc1 (racemic) [12k, (5R,5aR,10bS)-10b-Hydroxy-8,10-dimethoxy-2,5a-bis(4-methoxyphenyl)-5-phenyl-3,5,5a,10b-tetrahydro-4H-benzofuro[2′,3′:4,5]cyclopenta[1,2-d]pyrimidin-4-one]
toxicity curve in MTS assay compared with CellTiter-Glo assay [1]: nearly identical toxicity curves

COc1ccc([C@@]23Oc4cc(OC)cc(OC)c4[C@]2(O)c2nc(-c4ccc(C(F)(F)F)cc4)[nH]c(=O)c2[C@H]3c2ccccc2)cc1 (racemic) [12o, (5R,5aR,10bS)-10b-Hydroxy-8,10-dimethoxy-5a-(4-methoxyphenyl)-5-phenyl-2-(4-(trifluoromethyl)phenyl)-3,5,5a,10b-tetrahydro-4H-benzofuro[2′,3′:4,5]cyclopenta[1,2-d]pyrimidin-4-one]
toxicity curve in MTS assay compared with CellTiter-Glo assay [1]: nearly identical toxicity curves
CC50 [2]: 10 µM
maximum cytotoxicity plateau, cell death ([3]; dose-response up to 200 μM): ~100%
EC50 [4]: 240 nM

COc1ccc([C@@]23Oc4cc(OC)cc(OC)c4[C@]2(O)c2nc(-c4ccccc4)[nH]c(=O)c2[C@H]3c2ccccc2)cc1 [12a, (5R,5aR,10bS)-10b-Hydroxy-8,10-dimethoxy-5a-(4-methoxyphenyl)-2,5-diphenyl-3,5,5a,10b-tetrahydro-4H-benzofuro[2′,3′:4,5]cyclopenta[1,2-d]pyrimidin-4-one]
CC50 [2]: 8.1 µM
cytotoxicity (in words) [3]: plateauing of cytotoxicity
EC50 [4]: 420 nM
inhibition of HCV infection (in words) [4]: promising increase of inhibition

COc1ccc([C@@]23Oc4cc(OC)cc(OC)c4[C@]2(O)c2nc(-c4ccccc4)n(C)c(=O)c2[C@H]3c2ccccc2)cc1 [12ae, (5R,5aR,10bS)-10b-Hydroxy-8,10-dimethoxy-5a-(4-methoxyphenyl)-3-methyl-2,5-diphenyl-3,5,5a,10b-tetrahydro-4H-benzofuro[2′,3′:4,5]cyclopenta[1,2-d]pyrimidin-4-one]
CC50 [2]: 7.3 µM
cytotoxicity (in words) [3]: plateauing of cytotoxicity
EC50 [4]: 200 nM

COc1ccc([C@@]23Oc4cc(OC)cc(OC)c4[C@]2(O)c2nc(C4CCCCC4)[nH]c(=O)c2[C@H]3c2ccccc2)cc1 [12e, (5R,5aR,10bS)-2-Cyclohexyl-10b-hydroxy-8,10-dimethoxy-5a-(4-methoxyphenyl)-5-phenyl-3,5,5a,10b-tetrahydro-4H-benzofuro[2′,3′:4,5]cyclopenta[1,2-d]pyrimidin-4-one]
cytotoxicity (in words) [3]: plateauing of cytotoxicity
EC50 [4]: 2500 nM

COc1ccc([C@]23Oc4cc(OC)cc(OC)c4[C@@]2(O)c2nc(-c4ccc(C)cc4)[nH]c(=O)c2[C@@H]3c2ccccc2)cc1 [(−)-12l]
cytotoxicity (in words) [3]: non-toxic
inhibition of HCV infection (in words) [4]: inactive

COc1ccc([C@]23Oc4cc(OC)cc(OC)c4[C@@]2(O)c2nc(-c4cccc(OC)c4)[nH]c(=O)c2[C@@H]3c2ccccc2)cc1 [(−)-12s]
cytotoxicity (in words) [3]: non-toxic
inhibition of HCV infection (in words) [4]: inactive

CONC(=O)[C@H]1[C@@H](O)[C@@]2(O)c3c(OC)cc(OC)cc3O[C@@]2(c2ccc(OC)cc2)[C@@H]1c1ccccc1 [CR-1-31-B, reference compound]
translation inhibition of firefly luciferase (cap-dependent) [5]: strong inhibition

COC(=O)[C@H]1[C@@H](O)[C@@]2(O)c3c(OC)cc(O[C@@H]4O[C@@H]([C@H](O)CO)CO[C@H]4OC)cc3O[C@@]2(c2ccc(OC)cc2)[C@@H]1c1ccccc1 [silvestrol]
translation inhibition (in words) [6]: excellent translation inhibitor

— patent US11427595B2, “Compositions and methods for inhibiting viral infection” (Trustees of Boston University, priority 2018, dated 2022)
